The experiment relates to NRG1-DOC4 fusion breast cancer cell line, MDA175-VII. Description: Cell viability of MDA175-VII cells by Cell Titer Glo assay. It counts as cell-based. The conditions noted are these: 72 hours; for IC50 values: HER2 targeting antibody alone. The method, then: The cell viability of NRG1-DOC4 fusion breast cancer cell line, MDA175-VII, was tested with treatment of poziotinib with and without antibodies and antibody drug conjugates (ADCs) targeting HER2 and HER2/HER3 dimerization. Cell viability was determined by the Cell Titer Glo assay.
(Cellular ATP, detected with luciferase, serves as a proxy for viable cell number.)

What is called IC50 is the point on the concentration scale where inhibition reaches its midpoint. Low readings indicate higher potency, high ones lower potency.

Molecule `C=CC(=O)N1CCC(Oc2cc3c(Nc4ccc(Cl)c(Cl)c4F)ncnc3cc2OC)CC1` [poziotinib, 1-[4-[4-(3,4-dichloro-2-fluoroanilino)-7-methoxyquinazolin-6-yl]oxypiperidin-1-yl]prop-2-en-1-one] had a 50% inhibitory concentration (IC50) (poziotinib alone) of 0.287 nM.

Take T-DM1: the IC50 values amounted to 0.6345 µg/mL.

Consider “pertuzumab: recombinant, humanized monoclonal antibody that inhibits dimerization of HER2”, for which the IC50 values came to 0.0537 µg/mL.

The values are drawn from patent US20230069749A1, “USE OF POZIOTINIB FOR THE TREATMENT OF CANCERS WITH NRG1 FUSIONS” (Board of Regents, The University of Texas System, priority 2020, published 2023).
